The target in data set [1] is T1, alpha2C adrenergic receptors (Homo sapiens, UniProt P18825).
T1 construct: expressed in transfected cells; host or cells: NIH-3T3
T1 sequence (P18825 1-462): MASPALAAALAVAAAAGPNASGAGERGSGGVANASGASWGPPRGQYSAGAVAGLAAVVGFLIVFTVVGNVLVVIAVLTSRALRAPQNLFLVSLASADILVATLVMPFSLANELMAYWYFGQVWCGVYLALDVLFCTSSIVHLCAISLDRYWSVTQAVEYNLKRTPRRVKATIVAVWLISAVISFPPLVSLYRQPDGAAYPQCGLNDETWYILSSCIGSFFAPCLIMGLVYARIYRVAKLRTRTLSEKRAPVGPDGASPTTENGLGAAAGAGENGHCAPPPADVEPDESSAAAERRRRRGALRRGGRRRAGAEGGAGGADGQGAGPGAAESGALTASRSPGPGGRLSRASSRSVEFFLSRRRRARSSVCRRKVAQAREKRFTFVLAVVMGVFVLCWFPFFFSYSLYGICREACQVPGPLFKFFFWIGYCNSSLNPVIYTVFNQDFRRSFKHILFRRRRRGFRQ
The data set can be described thus: Receptor Selection and Amplification Technology (RSAT) assay, alpha2C. Type of data set: cell-based. Conditions: for EC50: NA = not active at concentrations less than 10 micromolar, read-out: Alpha 2C EC50; for Alpha 2C intrinsic activity: fraction of maximal effect of standard full agonist brimonidine (UK14304). The gist of the method: (§1)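 NIH-3T3 cells cotransfected with receptor, Gq/i5 and β-galactosidase were incubated with drugs in triplicate for 72-96 hr at 37 °C; proliferation read as β-galactosidase activity (o-nitrophenyl-β-D-galactopyranoside, OD 420 nm).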

In data set [2] the target is T2, alpha2B adrenergic receptors (Homo sapiens, UniProt P18089).
T2 construct: expressed in transfected cells; host or cells: NIH-3T3
T2 sequence (P18089 1-450): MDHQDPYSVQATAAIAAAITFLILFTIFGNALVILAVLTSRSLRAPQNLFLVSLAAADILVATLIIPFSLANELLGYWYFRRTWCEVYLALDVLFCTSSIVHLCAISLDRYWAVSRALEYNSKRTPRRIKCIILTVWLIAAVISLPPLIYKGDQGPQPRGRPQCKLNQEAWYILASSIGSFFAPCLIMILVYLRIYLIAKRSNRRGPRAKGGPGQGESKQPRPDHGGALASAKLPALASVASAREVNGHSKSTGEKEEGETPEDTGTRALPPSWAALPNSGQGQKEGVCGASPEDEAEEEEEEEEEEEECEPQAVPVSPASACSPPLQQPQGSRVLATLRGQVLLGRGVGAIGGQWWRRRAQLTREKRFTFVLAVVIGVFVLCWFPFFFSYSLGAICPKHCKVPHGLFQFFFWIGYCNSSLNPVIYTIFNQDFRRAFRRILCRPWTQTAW
The data set can be described thus: Receptor Selection and Amplification Technology (RSAT) assay, alpha2B. Conditions: for EC50: NA = not active at concentrations less than 10 micromolar, read-out: Alpha 2B EC50; for Alpha 2B intrinsic activity: fraction of maximal effect of standard full agonist brimonidine (UK14304). Type of data set: cell-based. In short, it runs like this: as §1

Data set [3] concerns rats with ligated L5 and L6 spinal nerves. The data set can be described thus: Chung model of neuropathic pain (tactile allodynia, von Frey hairs). It is filed as in vivo. The conditions noted are these: Rattus norvegicus, 0.5 h, 30 min following drug administration, read-out: % Pain Reversal ± SEM; for inhibition in vivo at 0.001 mg/kg: 1 μg/kg i.p.; for inhibition in vivo at 0.003 mg/kg: 3 μg/kg i.p. From the text:
A model in accordance with Kim and Chung 1992, Pain […], pp 355-363 (Chung model), for chronic pain (in particular peripheral neuropathy) involves the surgical ligation of the L5 (and optionally the L6) spinal nerves on one side in experimental animals. Rats recovering from the surgery gain weight and display a level of general activity similar to that of normal rats. However, these rats develop abnormalities of the foot, wherein the hindpaw is moderately everted and the toes are held together. More importantly, the hindpaw on the side affected by the surgery appears to become sensitive to pain from low-threshold mechanical stimuli, such as that producing a faint sensation of touch in a human, within about 1 week following surgery. This sensitivity to normally non-painful touch is called “tactile allodynia” and lasts for at least two months. The response includes lifting the affected hindpaw to escape from the stimulus, licking the paw and holding it in the air for many seconds. None of these responses is normally seen in the control group.
Rats are anesthetized before surgery. The surgical site is shaved and prepared either with betadine or Novacaine. Incision is made from the thoracic vertebra Xlll down toward the sacrum. Muscle tissue is separated from the spinal vertebra (left side) at the L4-S2 levels. The L6 vertebra is located and the transverse process is carefully removed with a small rongeur to expose the L4-L6 spinal nerves. The L5 and L6 spinal nerves are isolated and tightly ligated with 6-0 silk thread. The same procedure is done on the right side as a control, except no ligation of the spinal nerves is performed.
A complete hemostasis is confirmed, then the wounds are sutured. A small amount of antibiotic ointment is applied to the incised area, and the rat is transferred to the recovery plastic cage under a regulated heat-temperature lamp. On the day of the experiment, at least seven days after the surgery, typically six rats per test group are administered the test drugs by intraperitoneal (i.p.) injection or oral gavage. For i.p. injection, the compounds are formulated in approximately 10 to 50% DMSO and given in a volume of 1 ml/kg body weight.
Tactile allodynia is measured prior to and 30 minutes after drug administration using von Frey hairs that are a series of fine hairs with incremental differences in stiffness. Rats are placed in a plastic cage with a wire mesh bottom and allowed to acclimate for approximately 30 minutes. The von Frey hairs are applied perpendicularly through the mesh to the mid-plantar region of the rats' hindpaw with sufficient force to cause slight buckling and held for 6-8 seconds. The applied force has been calculated to range from 0.41 to 15.1 grams. If the paw is sharply withdrawn, it is considered a positive response. A normal animal will not respond to stimuli in this range, but a surgically ligated paw will be withdrawn in response to a 1-2 gram hair. The 50% paw withdrawal threshold is determined using the method of Dixon, W. J., Ann. Rev. Pharmacol. Toxicol. 20:441-462 (1980). The post-drug threshold is compared to the pre-drug threshold and the percent reversal of tactile sensitivity is calculated based on a normal threshold of 15.1 grams. The results are expressed in percent (%) MPE, where the MPE value reflects the percentage reversal of pain threshold to that of a normal animal (100%). Table 3 below indicates results of this test with Compounds 1, 7 and 29 of the invention, administered i.p. and in oral doses.

The test system of the next data set is male Sprague-Dawley rats. The data set can be described thus: Sedative activity (exploratory behavior). The conditions noted are these: intraperitoneally, up to a dose of 1 mg/kg. It is filed as in vivo, rat. On the procedure:
To test sedation, six male Sprague-Dawley rats are given up to 3 mg/kg of the test compound in a saline or DMSO vehicle by intraperitoneal injection (i.p.). Sedation is graded 30 minutes following administration of the drug by monitoring locomotor skills as follows.
The Sprague-Dawley rats are weighed and 1 ml/kg body weight of an appropriate concentration (ie. 3 mg/ml for a final dose of 3 mg/kg) drug solution is injected intraperitoneally. Typically the test compound is formulated in approximately 10 to 50% DMSO. The results are compared to controls that are injected with 1 ml/kg saline or 10 to 50% DMSO. Rat activity is then determined 30 minutes after injection of the drug solution. Rats are placed in a dark covered chamber and a digicom analyzer (Omnitech Electronic) quantitates their exploratory behavior for a five-minute period. The machine records each time the rat interrupts an array of 32 photoelectric beams in the X and Y orientation.

Results on 14 compounds are retold here after patent US7323485B2, “4-(substituted cycloalkylmethyl) imidazole-2-thiones, 4-(substituted cycloalkenylmethyl) imidazole-2-thiones, 4-(substituted cycloalkylmethyl) imidazol-2-ones and 4-(substituted cycloalkenylmethyl) imidazol-2-ones and related compounds” (Allergan, Inc., priority 2002, dated 2008).

Where two headings read alike, the source gives them in different places. Some results are limits rather than exact numbers.

By EC50 is commonly meant the concentration that produces a half-maximal response.

With `CCC1=CC(Cc2c[nH]c(=S)[nH]2)CC1` (stereo not shown), in data set [1], the EC50 is greater than 2000 nM and the “Alpha 2C intrinsic activity” value is 0.32. In addition, in data set [2], the EC50 was 750 nM and the “Alpha 2B intrinsic activity” value was 0.49.

Take `S=c1[nH]cc(C[C@@H]2CCc3ccccc32)[nH]1`: in data set [1], the EC50 was 630 nM and the “Alpha 2C intrinsic activity” value was 0.61. For the same compound, in data set [2], the EC50 amounted to 24.5 nM and the “Alpha 2B intrinsic activity” value stood at 0.97.

On to `S=c1[nH]cc(CC2CCC=C2Cl)[nH]1` (stereo not shown), for which, in data set [1], the EC50 was found to be 116 nM and the “Alpha 2C intrinsic activity” value came out at 0.55. In data set [2], the concentration giving a half-maximal response (EC50) turned out to be 28 nM and the “Alpha 2B intrinsic activity” value was determined as 0.9.

For the compound `CC1=C(Br)C(Cc2c[nH]c(=S)[nH]2)CC1` (stereo not shown), in data set [1], the EC50 is 139 nM and the “Alpha 2C intrinsic activity” value worked out at 0.48. In addition, in data set [2], the EC50 was 27 nM and the “Alpha 2B intrinsic activity” value was found to be 0.95.

Take `O=C1c2ccccc2CCC1Cc1c[nH]c(=S)[nH]1` (single isomer, unassigned) [Compound 23, 2-(2-thioxo-2,3-dihydro-1H-imidazol-4-ylmethyl)-3,4-dihydro-2H-naphthalen-1-one]: in data set [3] (ip), the inhibition in vivo at 0.001 mg/kg was found to be 0.7 ± 0.8% and the inhibition in vivo at 0.003 mg/kg is 59 ± 5.8%. Moreover, the inhibition in vivo at 0.01 mg/kg in data set [3] (ip, 10 μg/kg i.p.) amounted to 74 ± 6.1%. In data set [3] (ip, 30 μg/kg i.p.), the inhibition in vivo at 0.03 mg/kg is 69 ± 10%. Besides, in the data set on male Sprague-Dawley rats, the sedative effect result is “no sedative effect”.

In the case of `S=c1[nH]cc(CC2CCC3=C2CCC3)[nH]1` (stereo not shown) [Compound 1, 4-(1,2,3,4,5,6-hexahydro-pentalen-1-ylmethyl)-1,3-dihydro-imidazole-2-thione], the inhibition in vivo at 0.03 mg/kg in data set [3] (ip, 30 μg/kg i.p.) was 9 ± 2%. Besides, the inhibition in vivo at 0.1 mg/kg stood at 13 ± 2% in data set [3] (ip, 100 μg/kg i.p.) and 29 ± 5% in data set [3] (po, 100 μg/kg p.o.). Besides, the inhibition in vivo at 1 mg/kg in data set [3] (ip, 1000 μg/kg i.p.) was found to be 44 ± 7%.

Regarding `S=c1[nH]cc(CC2CCc3ccccc32)[nH]1` (stereo not shown) [Compound 7, 4-indan-1-ylmethyl-1,3-dihydro-imidazole-2-thione], the inhibition in vivo at 0.001 mg/kg in data set [3] (ip) came to 1 ± 1%. In data set [3] (ip), the inhibition in vivo at 0.003 mg/kg is 23 ± 4%. Further, the inhibition in vivo at 0.01 mg/kg in data set [3] (ip, 10 μg/kg i.p.) was determined as 58 ± 8%; in data set [3] (po, 10 μg/kg p.o.), 1 ± 1%. Moreover, the inhibition in vivo at 0.03 mg/kg in data set [3] (ip, 30 μg/kg i.p.) stood at 85 ± 6%; in data set [3] (po, 30 μg/kg p.o.), 56 ± 10%. Also, the inhibition in vivo at 0.1 mg/kg is 89 ± 7% in data set [3] (ip, 100 μg/kg i.p.) and 58 ± 8% in data set [3] (po, 100 μg/kg p.o.). Besides, the inhibition in vivo at 0.3 mg/kg in data set [3] (po, 300 μg/kg p.o.) is 61 ± 6%.

`S=c1[nH]cc(CC2CCc3sccc3C2)[nH]1` (stereo not shown) [Compound 29, 4-(4,5,6,7-tetrahydro-benzo[b]thiophen-5-ylmethyl)-1,3-dihydro-imidazole-2-thione]: the inhibition in vivo at 0.01 mg/kg in data set [3] (ip, 10 μg/kg i.p.) was found to be 17 ± 3%. Moreover, the inhibition in vivo at 0.03 mg/kg in data set [3] (ip, 30 μg/kg i.p.) was found to be 61 ± 11%. The inhibition in vivo at 0.1 mg/kg in data set [3] (ip, 100 μg/kg i.p.) was found to be 14 ± 2%.

On to `O=c1[nH]cc(CC2CCC3=C2CCC3)[nH]1` (stereo not shown) [Compound 41, 4-(1,2,3,4,5,6-Hexahydro-pentalen-1-ylmethyl)-1,3-dihydro-imidazol-2-one], for which the inhibition in vivo at 0.01 mg/kg in data set [3] (ip, 10 μg/kg i.p.) is 3 ± 1.6%. Besides, in data set [3] (ip, 30 μg/kg i.p.), the inhibition in vivo at 0.03 mg/kg came to 71 ± 2.8%. Further, in data set [3] (ip, 100 μg/kg i.p.), the inhibition in vivo at 0.1 mg/kg amounted to 13 ± 1%.

Consider `CC1=C(C)C(Cc2c[nH]c(=O)[nH]2)CC1` (stereo not shown) [Compound 44, 4-(2,3-dimethyl-cyclopent-2-enylmethyl)-1,3-dihydro-imidazol-2-one], for which, in data set [3] (ip), the inhibition in vivo at 0.001 mg/kg worked out at 0.5 ± 2.9% and the inhibition in vivo at 0.003 mg/kg worked out at 24 ± 4.6%. For the same compound, the inhibition in vivo at 0.01 mg/kg in data set [3] (ip, 10 μg/kg i.p.) amounted to 46 ± 9.1%. Also, in data set [3] (ip, 30 μg/kg i.p.), the inhibition in vivo at 0.03 mg/kg was 62 ± 9.6%. In data set [3] (ip, 100 μg/kg i.p.), the inhibition in vivo at 0.1 mg/kg was 82 ± 5.8%.

On to `O=c1[nH]cc(C[C@H]2CCc3cc(F)ccc32)[nH]1` [Compound 61, R-(+)-4-(5-fluoro-indan-1-ylmethyl)-1,3-dihydro-imidazol-2-one], for which the sedative effect entry in the data set on male Sprague-Dawley rats was “no sedative effect”.

As for `S=c1[nH]cc(CC2CCC3=C2CCC3)[nH]1` (stereo not shown) [drawing 15], in data set [1], the EC50 was 110 nM and the “Alpha 2C intrinsic activity” value was 0.43. In addition, in data set [2], the EC50 was 5 nM and the “Alpha 2B intrinsic activity” value was 0.87.

`S=c1[nH]cc(CC2CCc3ccccc32)[nH]1` (stereo not shown) [drawing 16]: in data set [1], the EC50 stood at 182 nM and the “Alpha 2C intrinsic activity” value turned out to be 0.57. Also, in data set [2], the EC50 turned out to be 10 nM and the “Alpha 2B intrinsic activity” value is reported as 0.91.

Take `S=c1[nH]cc(CC2CC=CC2)[nH]1` [drawing 24]: in data set [1], the EC50 is 180 nM and the “Alpha 2C intrinsic activity” value is given as 0.51. Besides, in data set [2], the EC50 amounted to 24 nM and the “Alpha 2B intrinsic activity” value came out at 0.85.
